Laboratory results reported in patent US5246959A, “Poly(aminoalkyl)aminocarbonyl aminoacyl aminodiol amino acid derivatives as anti-hypertensive agents” (G. D. Searle & Co., priority 1991, dated 1993).
Where a SMILES comes first, the peptide text is derived from it. [ ]: non-standard residue; d: D form. The star is where a group is joined. Sta = CC(C)C[C@H](N)[C@@H](O)CC(=O)O; Isovaleryl = CC(C)CC(=O)*

Key:
[1] = molecular target: T1, Human Renin (Homo sapiens, UniProt P00797); test: human renin inhibition test in vitro (angiotensin I by radioimmunoassay); type: biochemical; settings: pH 7.4, 37° C., two hours, human plasma
T1 construct: purchased National Institute for Biological Standards, London
T1 sequence (P00797 67-406): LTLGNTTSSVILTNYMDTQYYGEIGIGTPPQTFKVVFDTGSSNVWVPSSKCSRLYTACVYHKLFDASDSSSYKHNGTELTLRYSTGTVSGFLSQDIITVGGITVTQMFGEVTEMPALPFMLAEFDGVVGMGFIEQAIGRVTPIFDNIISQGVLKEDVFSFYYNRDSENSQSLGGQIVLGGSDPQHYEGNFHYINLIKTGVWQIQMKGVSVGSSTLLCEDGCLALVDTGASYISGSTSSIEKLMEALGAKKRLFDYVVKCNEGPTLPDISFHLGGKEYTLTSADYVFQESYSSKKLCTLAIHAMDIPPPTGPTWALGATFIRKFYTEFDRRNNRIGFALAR
Protocol: Compounds of Formula I were evaluated as inhibitors of human renin in an in vitro assay, as follows: This human renin inhibition test has been previously described in detail [Papaioannou et al., Clinical and Experimental Hypertension, A7(9), 1243-1257 (1985)]. Human renin was obtained from the National Institute for Biological Standards, London. An incubation mixture was prepared containing in a total volume of 0.25 mL 100 mM Tris-acetate buffer at pH 7.4, 25×10^-6 Goldblatt units of renin, 0.05 mL of plasma from human volunteers taking oral contraceptives, 6.0 mM sodium EDTA, 2.4 mM phenylmethyl sulfonyl fluoride, 1.5 mM 8-hydroxyquinoline, 0.4 mg/mL BSA, and 0.024 mg/mL neomycin sulfate. This mixture was incubated for two hours at 37° C. in the presence or absence of renin inhibitors. The produced angiotensin I was determined by radioimmunoassay (New England Nuclear kit). Test compounds to be assayed were solubilized in DMSO and diluted with 100 mM Trisacetate buffer at pH 7.4 containing 0.5% bovine serum albumin (BSA) to the appropriate concentration. The final concentration of organic solvent in the reaction mixture was less than 1%. Control incubations at 37° C. were used to correct for effects of organic solvent on renin activity.

[2] = test system: renin; settings: cited from earlier work
[3] = test system: hog renin; settings: after injection of hog renin into nephrectomized rats; cited from earlier work
[4] = test system: cathepsin D; settings: cited from earlier work
[5] = test system: pepsin; settings: cited from earlier work

Row | IC50 [1] [nM] | Compound | inhibitor of renin [2] | reduce blood pressure in vivo [3] | inhibitor of cathepsin D [4] | inhibitor of pepsin [5]
1 | 2.4 | CC(C)C[C@H](NC(=O)[C@H](Cc1ccccc1)OC(=O)N(C)CCN(C)CCN(C)C)C(=O)N[C@@H](CC1CCCCC1)[C@@H](O)[C@@H](O)CC(C)C [Example 10] | – | – | – | –
2 | 1 | CC(C)C[C@H](O)[C@H](O)[C@H](CC1CCCCC1)NC(=O)[C@H](Cc1cnc[nH]1)NC(=O)[C@H](Cc1ccccc1)OC(=O)N(C)CCN(C)CCN(C)C [Example 11, O-{N-[2-{N-[2-(N,N-dimethylamino)ethyl]-N-methylamino}-ethyl]-N-methylaminocarbonyl}-3-L-phenyllactyl-L-histidineamide of (2S,3R,4S)-2-amino-1-cyclohexyl-3,4-dihydroxy-6-methylheptane] | – | – | – | –
3 | 110 | CC(C)C[C@H](O)[C@H](O)[C@H](CC1CCCCC1)NC(=O)[C@H](C)CNC(=O)[C@H](Cc1ccccc1)OC(=O)N(C)CCN(C)CCN(C)C [Example 12] | – | – | – | –
4 | – | CC(C)CC(=O)N[C@H](C(=O)N[C@H](C(=O)N[C@@H](CC(C)C)[C@@H](O)CC(=O)N[C@@H](C)C(=O)N[C@@H](CC(C)C)[C@@H](O)CC(=O)O)C(C)C)C(C)C [pepstatin] (Isovaleryl-VV[Sta]A[Sta]-OH) | inhibitor | found to reduce blood pressure in vivo | inhibitor | inhibitor
